Broadly, the EC50 is the concentration needed to bring the measured effect to its halfway point.

The test system of the assay is HCV 1b-377-neo replicon cells. Put plainly: HCV replicon assay, HCV 1b-377-neo replicon cells (1b FRET). The format is cell-based, Hepatitis C virus genotype 1b. The following applies: Hepatitis C virus, HCV 1b-377-neo replicon cells; HCV 1b genotype; read-out: EC50 range against HCV 1b (Table 2, Range). The method, boiled down:
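FRET-based replicon assay in HCV 1b-377-neo cells, including a comparison line carrying the NS5A Y2065H mutation that confers resistance to a reference compound.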
As to `CN(C)[C@@H](C(=O)N1CCC[C@H]1c1ncc(-c2ccc(-c3ccc(-c4cnc([C@@H]5CCCN5C(=O)[C@@H](c5ccccc5)N(C)C)[nH]4)nc3)cc2)[nH]1)c1ccccc1` [Example 146, (1R)-2-((2S)-2-(5-(5-(4-(2-((2S)-1-((2R)-2-(dimethylamino)-2-phenylacetyl)-2-pyrrolidinyl)-1H-imidazol-5-yl)phenyl)-2-pyridinyl)-1H-imidazol-2-yl)-1-pyrrolidinyl)-N,N-dimethyl-2-oxo-1-phenylethanamine], the EC50 is 0.001 to 0.999 nM.

For `COC(=O)N[C@@H](C(=O)N1CCC[C@H]1c1ncc(-c2ccc(-c3ccc(-c4cnc([C@@H]5CCCN5C(=O)[C@H](NC(=O)OC)c5ccccc5)[nH]4)nc3)cc2)[nH]1)c1ccccc1` [Example 147, methyl ((1R)-2-((2S)-2-(5-(5-(4-(2-((2S)-1-((2R)-2-((methoxycarbonyl)amino)-2-phenylacetyl)-2-pyrrolidinyl)-1H-imidazol-5-yl)phenyl)-2-pyridinyl)-1H-imidazol-2-yl)-1-pyrrolidinyl)-2-oxo-1-phenylethyl)carbamate], the EC50 lay within 0.001 to 0.999 nM.

With `CN(C)[C@@H](C(=O)N1CSC[C@H]1c1ncc(-c2ccc(-c3ccc(-c4cnc([C@@H]5CSCN5C(=O)[C@@H](c5ccccc5)N(C)C)[nH]4)cc3)cc2)[nH]1)c1ccccc1` [Example 148, (1R,1′R)-2,2′-(4,4′-biphenyldiylbis(1H-imidazole-5,2-diyl(4R)-1,3-thiazolidine-4,3-diyl))bis(N,N-dimethyl-2-oxo-1-phenylethanamine)], the EC50 fell in the range of 1 to 99 nM.

With `COC(=O)N[C@@H](C(=O)N1CSC[C@H]1c1ncc(-c2ccc(-c3ccc(-c4cnc([C@@H]5CSCN5C(=O)[C@H](NC(=O)OC)c5ccccc5)[nH]4)cc3)cc2)[nH]1)c1ccccc1` [Example 149, dimethyl (4,4′-biphenyldiylbis(1H-imidazole-5,2-diyl(4R)-1,3-thiazolidine-4,3-diyl((1R)-2-oxo-1-phenyl-2,1-ethanediyl)))biscarbamate], the EC50 fell in the range of 0.001 to 0.999 nM.

As for `O=C([C@H]1CCCO1)N1CSC[C@H]1c1ncc(-c2ccc(-c3ccc(-c4cnc([C@@H]5CSCN5C(=O)[C@H]5CCCO5)[nH]4)cc3)cc2)[nH]1` [Example 150, (4R,4′R)-4,4′-(4,4′-biphenyldiylbis(1H imidazole-5,2-diyl))bis(3-((2R)-tetrahydro-2-furanylcarbonyl)-1,3-thiazolidine)], the EC50 fell in the range of 1 to 99 nM.

For the molecule `CN(C)[C@@H](C(=O)N1CCC[C@H]1c1ncc(-c2ccc(-c3ncc(-c4cnc([C@@H]5CCCN5C(=O)[C@@H](c5ccccc5)N(C)C)[nH]4)cn3)cc2)[nH]1)c1ccccc1` [Example 152j-1, (1R)-2-((2S)-2-(5-(2-(4-(2-((2S)-1-((2R)-2-(dimethylamino)-2-phenylacetyl)-2-pyrrolidinyl)-1H-imidazol-5-yl)phenyl)-5-pyrimidinyl)-1H-imidazol-2-yl)-1-pyrrolidinyl)-N,N-dimethyl-2-oxo-1-phenylethanamine], the EC50 was in the range of 1 to 99 nM.

Consider `COC(=O)N[C@@H](C(=O)N1CCC[C@H]1c1ncc(-c2ccc(-c3ncc(-c4cnc([C@@H]5CCCN5C(=O)[C@H](NC(=O)OC)c5ccccc5)[nH]4)cn3)cc2)[nH]1)c1ccccc1` [Example 152j-2, methyl ((1R)-2-((2S)-2-(5-(2-(4-(2-((2S)-1-((2R)-2-((methoxycarbonyl)amino)-2-phenylacetyl)-2-pyrrolidinyl)-1H-imidazol-5-yl)phenyl)-5-pyrimidinyl)-1H-imidazol-2-yl)-1-pyrrolidinyl)-2-oxo-1-phenylethyl)carbamate], for which the EC50 lay within 0.001 to 0.999 nM.

For the molecule `COC(=O)N[C@@H](C(=O)N1CCC[C@H]1c1ncc(-c2ccc(-c3ncc(-c4cnc([C@@H]5CCCN5C(=O)Cc5cccnc5)[nH]4)cn3)cc2)[nH]1)c1ccccc1` [Example 152j-3, methyl ((1R)-2-oxo-1-phenyl-2-((2S)-2-(5-(4-(5-(2-((2S)-1-(3-pyridinylacetyl)-2-pyrrolidinyl)-1H-imidazol-5-yl)-2-pyrimidinyl)phenyl)-1H-imidazol-2-yl)-1-pyrrolidinyl)ethyl)carbamate], the EC50 was in the range of 0.001 to 0.999 nM.

With `O=C([C@@H](c1ccccc1)N1CCCCC1)N1CCC[C@H]1c1ncc(-c2ccc(-c3ncc(-c4cnc([C@@H]5CCCN5C(=O)[C@@H](c5ccccc5)N5CCCCC5)[nH]4)cn3)cc2)[nH]1` [Example 152j-5, 5-(2-((2S)-1-((2R)-2-phenyl-2-(1-piperidinyl)acetyl)-2-pyrrolidinyl)-1H-imidazol-5-yl)-2-(4-(2-((2S)-1-((2R)-2-phenyl-2-(1-piperidinyl)acetyl)-2-pyrrolidinyl)-1H-imidazol-4-yl)phenyl)pyrimidine], the EC50 fell in the range of 0.001 to 0.999 nM.

For `C[C@@H](c1ncc(-c2ccc(-c3ncc(-c4cnc([C@@H]5CCCN5C(=O)[C@@H](c5ccccc5)N5CCCCC5)[nH]4)cn3)cc2)[nH]1)N(C)C(=O)[C@@H](c1ccccc1)N1CCCCC1` [Example 152j-6, (2R)-N-methyl-2-phenyl-N-((1S)-1-(4-(4-(5-(2-((2S)-1-((2R)-2-phenyl-2-(1-piperidinyl)acetyl)-2-pyrrolidinyl)-1H-imidazol-5-yl)-2-pyrimidinyl)phenyl)-1H-imidazol-2-yl)ethyl)-2-(1-piperidinyl)acetamide], the EC50 lay within 0.001 to 0.999 nM.

Consider `CN(C)[C@@H](C(=O)N1CCC[C@H]1c1ncc(-c2ccc(-c3cnc(-c4cnc([C@@H]5CCCN5C(=O)[C@@H](c5ccccc5)N(C)C)[nH]4)cn3)cc2)[nH]1)c1ccccc1` [Example 152j-7, (1R)-2-((2S)-2-(5-(5-(4-(2-((2S)-1-((2R)-2-(dimethylamino)-2-phenylacetyl)-2-pyrrolidinyl)-1H-imidazol-5-yl)phenyl)-2-pyrazinyl)-1H-imidazol-2-yl)-1-pyrrolidinyl)-N,N-dimethyl-2-oxo-1-phenylethanamine], for which the 50% effective concentration (EC50) is 1 to 99 nM.

For `COC(=O)N[C@@H](C(=O)N1CCC[C@H]1c1ncc(-c2ccc(-c3cnc(-c4cnc([C@@H]5CCCN5C(=O)[C@H](NC(=O)OC)c5ccccc5)[nH]4)cn3)cc2)[nH]1)c1ccccc1` [Example 152j-8, methyl ((1R)-2-((2S)-2-(5-(5-(4-(2-((2S)-1-((2R)-2-((methoxycarbonyl)amino)-2-phenylacetyl)-2-pyrrolidinyl)-1H-imidazol-5-yl)phenyl)-2-pyrazinyl)-1H-imidazol-2-yl)-1-pyrrolidinyl)-2-oxo-1-phenylethyl)carbamate], the EC50 was in the range of 0.001 to 0.999 nM.

On to `CN(C)[C@@H](C(=O)N1CCC[C@H]1c1ncc(-c2ccc(-c3ccc(-c4cnc([C@@H]5CCCN5C(=O)[C@@H](c5ccccc5)N(C)C)[nH]4)nn3)cc2)[nH]1)c1ccccc1` [Example 152j-9, (1R)-2-((2S)-2-(5-(6-(4-(2-((2S)-1-((2R)-2-(dimethylamino)-2-phenylacetyl)-2-pyrrolidinyl)-1H-imidazol-5-yl)phenyl)-3-pyridazinyl)-1H-imidazol-2-yl)-1-pyrrolidinyl)-N,N-dimethyl-2-oxo-1-phenylethanamine], for which the EC50 is 1 to 99 nM.

For `COC(=O)N[C@@H](C(=O)N1CCC[C@H]1c1ncc(-c2ccc(-c3ccc(-c4cnc([C@@H]5CCCN5C(=O)[C@H](NC(=O)OC)c5ccccc5)[nH]4)nn3)cc2)[nH]1)c1ccccc1` [Example 152j-10], the EC50 lay within 1 to 99 nM.

For `C[C@H](NC(=O)[C@@H](c1ccccc1)N(C)C)c1ncc(-c2ccc(-c3ccc(-c4cnc([C@@H]5CCCN5C(=O)[C@@H](c5ccccc5)N(C)C)[nH]4)cn3)cc2)[nH]1` [Example 152j-11, (2R)-2-(dimethylamino)-N-((1S)-1-(5-(4-(5-(2-((2S)-1-((2R)-2-(dimethylamino)-2-phenylacetyl)-2-pyrrolidinyl)-1H-imidazol-5-yl)-2-pyridinyl)phenyl)-1H-imidazol-2-yl)ethyl)-2-phenylacetamide], the EC50 lay in the range of 0.001 to 0.999 nM.

Take `COC(=O)N[C@@H](C(=O)N[C@@H](C)c1ncc(-c2ccc(-c3ccc(-c4cnc([C@@H]5CCCN5C(=O)[C@H](NC(=O)OC)c5ccccc5)[nH]4)cn3)cc2)[nH]1)c1ccccc1` [Example 152j-12, methyl ((1R)-2-((2S)-2-(5-(6-(4-(2-((1S)-1-(((2R)-2-((methoxycarbonyl)amino)-2-phenylacetyl)amino)ethyl)-1H-imidazol-5-yl)phenyl)-3-pyridinyl)-1H-imidazol-2-yl)-1-pyrrolidinyl)-2-oxo-1-phenylethyl)carbamate]: the EC50 lay within 0.001 to 0.999 nM.

For the molecule `C[C@H](NC(=O)[C@@H](c1ccccc1)N(C)C)c1ncc(-c2ccc(-c3ccc(-c4cnc([C@@H]5CCCN5C(=O)[C@@H](c5ccccc5)N(C)C)[nH]4)nn3)cc2)[nH]1` [Example 152j-13, (2R)-2-(dimethylamino)-N-((1S)-1-(5-(4-(6-(2-((2S)-1-((2R)-2-(dimethylamino)-2-phenylacetyl)-2-pyrrolidinyl)-1H-imidazol-5-yl)-3-pyridazinyl)phenyl)-1H-imidazol-2-yl)ethyl)-2-phenylacetamide], the EC50 fell in the range of 1 to 99 nM.

As for `COC(=O)N[C@@H](C(=O)N[C@@H](C)c1ncc(-c2ccc(-c3ccc(-c4cnc([C@@H]5CCCN5C(=O)[C@H](NC(=O)OC)c5ccccc5)[nH]4)nn3)cc2)[nH]1)c1ccccc1` [Example 152j-14, methyl ((1R)-2-((2S)-2-(5-(6-(4-(2-((1S)-1-(((2R)-2-((methoxycarbonyl)amino)-2-phenylacetyl)amino)ethyl)-1H-imidazol-5-yl)phenyl)-3-pyridazinyl)-1H-imidazol-2-yl)-1-pyrrolidinyl)-2-oxo-1-phenylethyl)carbamate], the EC50 lay in the range of 1 to 99 nM.

For the molecule `COC(=O)N[C@@H](C(=O)N[C@@H](C)c1ncc(-c2ccc(-c3ncc(-c4cnc([C@@H]5CCCN5C(=O)[C@H](NC(=O)OC)c5ccccc5)[nH]4)cn3)cc2)[nH]1)c1ccccc1` [Example 152j-15, methyl ((1R)-2-((2S)-2-(5-(2-(4-(2-((1S)-1-(((2R)-2-((methoxycarbonyl)amino)-2-phenylacetyl)amino)ethyl)-1H-imidazol-5-yl)phenyl)-5-pyrimidinyl)-1H-imidazol-2-yl)-1-pyrrolidinyl)-2-oxo-1-phenylethyl)carbamate], the EC50 lay within 0.001 to 0.999 nM.

(Values after US8574563B2 (Bristol-Myers Squibb Company, priority 2006, dated 2013).)
